The values below come from US12559506B2, “Indazole based compounds and associated methods of use” (Arvinas Operations, Inc., priority 2021, dated 2026).

Where two headings read alike, the source gives them in different places.

What is called DC50 is the midpoint of the concentration-degradation curve. For orientation: Dmax means the greatest extent of degradation seen.

This experiment addresses T1, LRRK2 (endogenous, HiBit tagged) (Homo sapiens, UniProt Q5S007).
T1 construct: endogenous in cells; host or cells: HEK293 cells with HiBit knock-in at the endogenous LRRK2 locus, stably expressing firefly luciferase
The experiment can be described thus: Endogenous LRRK2 degradation assay, endogenous gene C-terminally HiBit-tagged in HEK293 cells (Nano-Glo Dual Luciferase). It counts as cell-based. The settings on record: endogenous HiBit-tagged LRRK2 in HEK293 cells. The method, boiled down: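 LRRK2-HiBit quantified via Nano-Glo Dual Luciferase in HEK293 knock-in cells co-expressing firefly luciferase, after 24 h exposure to compound (1 μM final top, 1:3, 11 points). Values normalised to DMSO median per plate and curve-fitted; Alamar Blue viability run alongside.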
In general terms: HiBiT is a short tag that completes a luciferase, so light tracks the accessible tagged protein.

The mark [1] stands for this setting: 24 hours treatment, read-out: Endogenous WT DC50.
The mark [2] stands for this setting: 24 hours treatment, read-out: Endogenous WT Dmax.
Setting [3] is: 24 hours treatment, read-out: **Endogenous WT Dmax (%).
[4] abbreviates: 24 hours treatment, read-out: *Endogenous WT DC50.

T1 sequence (Q5S007 whole entry): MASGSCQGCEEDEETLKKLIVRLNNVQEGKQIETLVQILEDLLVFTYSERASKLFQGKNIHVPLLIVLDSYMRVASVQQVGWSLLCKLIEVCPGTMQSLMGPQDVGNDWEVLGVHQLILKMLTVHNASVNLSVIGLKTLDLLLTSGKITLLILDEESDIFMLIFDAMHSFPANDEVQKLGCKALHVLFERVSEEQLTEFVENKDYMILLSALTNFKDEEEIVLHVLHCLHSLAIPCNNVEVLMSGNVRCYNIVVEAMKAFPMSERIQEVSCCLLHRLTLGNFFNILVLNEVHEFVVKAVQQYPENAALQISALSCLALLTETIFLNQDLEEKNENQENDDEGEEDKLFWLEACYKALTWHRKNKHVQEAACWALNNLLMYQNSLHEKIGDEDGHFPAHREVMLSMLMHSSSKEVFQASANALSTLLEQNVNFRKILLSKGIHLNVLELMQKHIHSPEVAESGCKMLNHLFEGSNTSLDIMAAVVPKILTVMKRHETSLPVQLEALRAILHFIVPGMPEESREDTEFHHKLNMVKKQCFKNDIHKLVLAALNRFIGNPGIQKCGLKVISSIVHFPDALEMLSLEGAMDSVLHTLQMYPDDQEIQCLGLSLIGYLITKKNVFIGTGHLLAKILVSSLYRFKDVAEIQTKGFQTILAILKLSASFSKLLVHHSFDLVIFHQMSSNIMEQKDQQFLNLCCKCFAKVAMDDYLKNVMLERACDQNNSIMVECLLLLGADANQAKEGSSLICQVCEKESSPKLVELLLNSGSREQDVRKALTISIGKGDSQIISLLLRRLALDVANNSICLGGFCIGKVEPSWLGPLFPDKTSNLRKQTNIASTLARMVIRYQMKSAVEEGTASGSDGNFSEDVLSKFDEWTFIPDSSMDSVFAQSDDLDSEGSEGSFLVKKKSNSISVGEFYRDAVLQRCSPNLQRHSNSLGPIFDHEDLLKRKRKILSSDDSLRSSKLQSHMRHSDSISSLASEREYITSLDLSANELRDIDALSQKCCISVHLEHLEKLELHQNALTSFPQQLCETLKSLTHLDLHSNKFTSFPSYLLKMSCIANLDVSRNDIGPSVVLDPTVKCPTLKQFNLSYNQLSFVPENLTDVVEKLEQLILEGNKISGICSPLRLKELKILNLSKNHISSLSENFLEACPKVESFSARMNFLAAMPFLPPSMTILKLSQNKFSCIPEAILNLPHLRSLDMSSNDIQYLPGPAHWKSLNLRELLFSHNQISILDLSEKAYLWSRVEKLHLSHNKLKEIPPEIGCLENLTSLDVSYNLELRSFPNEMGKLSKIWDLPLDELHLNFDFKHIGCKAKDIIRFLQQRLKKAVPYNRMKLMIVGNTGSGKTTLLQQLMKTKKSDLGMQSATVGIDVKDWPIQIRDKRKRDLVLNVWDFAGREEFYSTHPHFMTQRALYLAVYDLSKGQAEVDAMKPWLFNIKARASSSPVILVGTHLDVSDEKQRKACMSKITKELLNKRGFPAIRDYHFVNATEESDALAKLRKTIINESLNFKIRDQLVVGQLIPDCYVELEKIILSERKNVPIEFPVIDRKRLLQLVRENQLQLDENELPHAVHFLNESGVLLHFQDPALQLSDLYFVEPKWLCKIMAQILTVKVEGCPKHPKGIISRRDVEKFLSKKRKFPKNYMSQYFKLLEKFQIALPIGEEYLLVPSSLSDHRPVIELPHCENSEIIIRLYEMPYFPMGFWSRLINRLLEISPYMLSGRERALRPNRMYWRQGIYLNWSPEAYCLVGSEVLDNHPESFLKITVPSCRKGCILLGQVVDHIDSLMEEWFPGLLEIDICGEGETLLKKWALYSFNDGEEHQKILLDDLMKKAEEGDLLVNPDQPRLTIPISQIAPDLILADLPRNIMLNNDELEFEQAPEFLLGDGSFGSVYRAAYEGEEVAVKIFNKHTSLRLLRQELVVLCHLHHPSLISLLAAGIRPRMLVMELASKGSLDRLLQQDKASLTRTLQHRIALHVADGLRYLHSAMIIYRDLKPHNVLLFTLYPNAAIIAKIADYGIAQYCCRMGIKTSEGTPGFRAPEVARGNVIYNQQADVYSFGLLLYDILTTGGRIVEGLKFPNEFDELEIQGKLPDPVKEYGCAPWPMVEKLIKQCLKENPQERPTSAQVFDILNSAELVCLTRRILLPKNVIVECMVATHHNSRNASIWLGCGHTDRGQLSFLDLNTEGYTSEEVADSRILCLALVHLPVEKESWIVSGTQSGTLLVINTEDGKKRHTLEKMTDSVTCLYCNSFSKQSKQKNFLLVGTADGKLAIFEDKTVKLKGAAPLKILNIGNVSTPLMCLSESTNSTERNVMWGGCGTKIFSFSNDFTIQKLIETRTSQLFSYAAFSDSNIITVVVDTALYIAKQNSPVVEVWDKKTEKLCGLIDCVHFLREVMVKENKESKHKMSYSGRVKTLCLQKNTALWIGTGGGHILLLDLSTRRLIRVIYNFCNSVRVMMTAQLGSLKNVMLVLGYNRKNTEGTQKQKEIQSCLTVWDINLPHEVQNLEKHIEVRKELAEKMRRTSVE

Consider `CC1(Oc2ccc3n[nH]c(-c4cc(N5CCN(C[C@H]6CC[C@H](OC7CCN(c8cc9c(cc8F)C(=O)N(C8CCC(=O)NC8=O)C9)CC7)CC6)CC5)ncn4)c3c2)CC1` (some centres unmarked) [Compound 235, 3-[6-fluoro-5-[4-[4-[[4-[6-[5-(1-methylcyclopropoxy)-2H-indazol-3-yl]pyrimidin-4-yl]piperazin-1-yl]methyl]cyclohexoxy]-1-piperidyl]-1-oxo-isoindolin-2-yl]piperidine-2,6-dione], for which, under setting [1], the 50% degradation concentration (DC50) is < 0.01 µM. For the same compound, the Dmax under setting [2] lay within 50 to 70%. For the compound `COc1c(N2CCC(CN3CCN(CC4CCN(c5cc(-c6n[nH]c7ccc(OC8(C)CC8)cc67)ncn5)CC4)C[C@H]3C)CC2)ccc2c1CN(C1CCC(=O)NC1=O)C2=O` (stereo partly drawn) [Compound 285, 3-[4-methoxy-5-(4-{[(2R)-2-methyl-4-[(1-{6-[5-(1-methylcyclopropoxy)-1H-indazol-3-yl]pyrimidin-4-yl}piperidin-4-yl)methyl]piperazin-1-yl]methyl}piperidin-1-yl)-1-oxo-2,3-dihydro-1H-isoindol-2-yl]piperidine-2,6-dione], the greatest degradation seen (Dmax) under setting [3] was ≥ 70%. The DC50 under setting [4] was < 0.01 µM. As to `COc1c(N2CCC(O[C@H]3CC[C@H](CN4CCN(c5cc(-c6n[nH]c7ccc(OC8(C)CC8)cc67)nc(C)n5)CC4)CC3)CC2)ccc2c1CN(C1CCC(=O)NC1=O)C2=O` (some centres unmarked) [Compound 367, 3-[4-methoxy-1-oxo-5-(4-{[(1r,4r)-4-[(4-{2-methyl-6-[5-(1-methylcyclopropoxy)-1H-indazol-3-yl]pyrimidin-4-yl}piperazin-1-yl)methyl]cyclohexyl]oxy}piperidin-1-yl)-2,3-dihydro-1H-isoindol-2-yl]piperidine-2,6-dione], the DC50 under setting [1] is < 0.01 µM. Besides, the Dmax under setting [2] fell in the range of 50 to 70%. Turning to `COc1c(N2CCC(N3CC(OC4CCN(c5cc(-c6[nH]nc7ccc(OC8(C)CC8)cc67)ncn5)CC4)C3)CC2)ccc2c1CN(C1CCC(=O)NC1=O)C2=O` (centres unmarked) [Compound 356, 3-[4-methoxy-5-(4-{3-[(1-{6-[5-(1-methylcyclopropoxy)-2H-indazol-3-yl]pyrimidin-4-yl}piperidin-4-yl)oxy]azetidin-1-yl}piperidin-1-yl)-1-oxo-2,3-dihydro-1H-isoindol-2-yl]piperidine-2,6-dione], the Dmax under setting [3] was in the range of 50 to 70%. Further, the DC50 under setting [4] is < 0.01 µM. `C[C@H]1CN(c2cc(-c3[nH]nc4ccc(OC5(C)CC5)cc34)ncn2)CCN1CC(=O)N1CCC(CN2CCN(c3ccc4c(c3)C(=O)N(C3CCC(=O)NC3=O)C4=O)CC2)CC1` (stereo partly drawn) [Compound 59, 2-(2,6-dioxo-3-piperidyl)-5-[4-[[1-[2-[(2S)-2-methyl-4-[6-[5-(1-methylcyclopropoxy)-2H-indazol-3-yl]pyrimidin-4-yl]piperazin-1-yl]acetyl]-4-piperidyl]methyl]piperazin-1-yl]isoindoline-1,3-dione]: the Dmax (24 hours, read-out: **Endogenous WT Dmax (%)) was ≥ 70%. Moreover, the DC50 (24 hours, read-out: *Endogenous WT DC50) is < 0.01 µM. As to `COc1c(N2CCN(C[C@H]3CO[C@H](CN4CCN(c5cc(-c6n[nH]c7cnc(OC8(C)CC8)cc67)ncn5)CC4)CO3)CC2)ccc2c1CN(C1CCC(=O)NC1=O)C2=O` (some centres unmarked) [Compound 302, 3-[4-methoxy-5-(4-{[(2s,5r)-5-[(4-{6-[5-(1-methylcyclopropoxy)-1H-pyrazolo[3,4-c]pyridin-3-yl]pyrimidin-4-yl}piperazin-1-yl)methyl]-1,4-dioxan-2-yl]methyl}piperazin-1-yl)-1-oxo-2,3-dihydro-1H-isoindol-2-yl]piperidine-2,6-dione], under setting [3], the Dmax lay in the range of 50 to 70%. Further, the DC50 under setting [4] is < 0.01 µM.

Consider `CC1(Oc2cc3c(-c4cc(N5CCN(C[C@H]6CC[C@H](OC7CCN(c8ccc9c(c8F)CN(C8CCC(=O)NC8=O)C9=O)CC7)CC6)CC5)ncn4)n[nH]c3cc2F)CC1` (some centres unmarked) [Compound 260, 3-[4-fluoro-1-oxo-5-(4-{[(1r,4r)-4-[(4-{6-[6-fluoro-5-(1-methylcyclopropoxy)-1H-indazol-3-yl]pyrimidin-4-yl}piperazin-1-yl)methyl]cyclohexyl]oxy}piperidin-1-yl)-2,3-dihydro-1H-isoindol-2-yl]piperidine-2,6-dione], for which the Dmax under setting [3] was in the range of 50 to 70%. Further, the DC50 under setting [4] is < 0.01 µM. `CC1(Oc2ccc3[nH]nc(-c4cc(N5CCN(CC6(F)CCN(CC7CCN(c8c(F)cc9c(c8F)CN(C8CCC(=O)NC8=O)C9=O)CC7)CC6)CC5)ncn4)c3c2)CC1` (centres unmarked) [Compound 220, 3-{4,6-difluoro-5-[4-({4-fluoro-4-[(4-{6-[5-(1-methylcyclopropoxy)-1H-indazol-3-yl]pyrimidin-4-yl}piperazin-1-yl)methyl]piperidin-1-yl}methyl)piperidin-1-yl]-1-oxo-2,3-dihydro-1H-isoindol-2-yl}piperidine-2,6-dione]: under setting [1], the half-maximal degradation concentration (DC50) is < 0.01 µM. Moreover, the Dmax under setting [2] was in the range of 50 to 70%. As to `COc1c(N2CCC(O[C@@H]3CCN(CC4CCN(c5cc(-c6n[nH]c7ccc(OC8(C)CC8)cc67)ncn5)CC4)C(C)(C)C3)CC2)ccc2c1CN(C1CCC(=O)NC1=O)C2=O` (stereo partly drawn) [Compound 322, 3-[5-(4-{[(4R)-2,2-dimethyl-1-[(1-{6-[5-(1-methylcyclopropoxy)-1H-indazol-3-yl]pyrimidin-4-yl}piperidin-4-yl)methyl]piperidin-4-yl]oxy}piperidin-1-yl)-4-methoxy-1-oxo-2,3-dihydro-1H-isoindol-2-yl]piperidine-2,6-dione], the greatest degradation seen (Dmax) under setting [3] lay within 50 to 70%. Under setting [4], the DC50 is < 0.01 µM. On to `COc1c(N2CC3(CCN(CCOC4CCN(c5cc(-c6n[nH]c7ccc(OC8(C)CC8)cc67)ncn5)CC4)CC3(F)F)C2)ccc2c1CN(C1CCC(=O)NC1=O)C2=O` (centres unmarked) [Compound 357, 3-[5-(5,5-difluoro-7-{2-[(1-{6-[5-(1-methylcyclopropoxy)-1H-indazol-3-yl]pyrimidin-4-yl}piperidin-4-yl)oxy]ethyl}-2,7-diazaspiro[3.5]nonan-2-yl)-4-methoxy-1-oxo-2,3-dihydro-1H-isoindol-2-yl]piperidine-2,6-dione], for which, under setting [1], the DC50 is < 0.01 µM. Also, under setting [2], the Dmax is 50 to 70%.

With `COc1c(N2CCC(CN3CCN(CC4CCN(c5cc(-c6n[nH]c7cc(F)c(OC8(C)CC8)cc67)ncn5)CC4)C(C)(C)C3)CC2)ccc2c1CN(C1CCC(=O)NC1=O)C2=O` (centres unmarked) [Compound 278, 3-{5-[4-({4-[(1-{6-[6-fluoro-5-(1-methylcyclopropoxy)-1H-indazol-3-yl]pyrimidin-4-yl}piperidin-4-yl)methyl]-3,3-dimethylpiperazin-1-yl}methyl)piperidin-1-yl]-4-methoxy-1-oxo-2,3-dihydro-1H-isoindol-2-yl}piperidine-2,6-dione], under setting [3], the Dmax lay in the range of 50 to 70%. Moreover, the DC50 under setting [4] was < 0.01 µM. `COc1c(N2CCC(CN3CCN(CC4CCN(c5cc(-c6n[nH]c7cnc(OC8(C)CC8)cc67)ncn5)CC4)C[C@H]3C)CC2)ccc2c1CN(C1CCC(=O)NC1=O)C2=O` (stereo partly drawn) [Compound 324, 3-[4-methoxy-5-(4-{[(2R)-2-methyl-4-[(1-{6-[5-(1-methylcyclopropoxy)-1H-pyrazolo[3,4-c]pyridin-3-yl]pyrimidin-4-yl}piperidin-4-yl)methyl]piperazin-1-yl]methyl}piperidin-1-yl)-1-oxo-2,3-dihydro-1H-isoindol-2-yl]piperidine-2,6-dione]: under setting [4], the DC50 was < 0.01 µM.
